These results are taken from ChEMBL document CHEMBL1201862, “PubChem BioAssay data set” (2004).

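Each compound was tested at five concentrations against cells in 96-well plates for 48 hours. Here, GI50 denotes the concentration required for 50% inhibition of growth.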 Activity calls are given as the source filed them. No stated cut-off is given here; in the data, active = GI50 up to about 1.1 µM and inactive = higher. A value given as a limit tells only on which side of the number the result lay.

Common to all, as to experiment: NCI anticancer screen, dose series, 48 h
The subject of assay [1] is SF-295.
Assay [2] relates to OVCAR-4.
Assay [3] relates to BT-549.
The test system of assay [4] is NCI-H522.
Assay [5] deals with NCI-H460.
In assay [6] the test system is SNB-75.
The test system of assay [7] is NCI/ADR-RES.
For assay [8], the system named is CAKI-1.
Assay [9] deals with OVCAR-8.
Assay [10] deals with NCI-H226.
In assay [11] the test system is A549.
Assay [12] concerns UACC-257.
For assay [13], the system named is NCI-H23.
The subject of assay [14] is MDA-MB-231.
Assay [15] deals with COLO 205.
For assay [16], the system named is HCT-15.
Assay [17] deals with UACC-62.
Assay [18] deals with SNB-19.
The subject of assay [19] is MOLT-4.
For assay [20], the system named is MDA-N.

For `Oc1[nH]c(Nc2ccc(Cl)cc2)nc2ncnc1-2`, the GI50 in assay [1] was > 100 µM (inactive); in assay [2] it was 64.7 µM (inactive); in assay [3], > 100 µM (inactive); in assay [4], 90.8 µM (inactive); in assay [5] it was > 100 µM (inactive); in assay [6] it was 43.4 µM (inactive). Besides, the GI50 in [7], in assay [8], in assay [9], in [10], in [11] and in [12] was > 100 µM (inactive) each time. Moreover, the GI50 was > 100 µM (inactive) in assay [13]; 88.3 µM (inactive) in assay [14]; > 100 µM (inactive) in assay [15]; above 100 µM in [16]; > 100 µM (inactive) in [17]; 33.1 µM (inactive) in [18].
Regarding `CC(C)OC(=O)/C=C/C(=O)O/C=C/[N+](=O)[O-]`, the GI50 in [1] is 27.9 µM (inactive); in assay [2] it was 26.9 µM (inactive); in [3], 41.8 µM (inactive); in assay [5], 60.7 µM (inactive); in assay [19] it was 15.9 µM (inactive); in assay [7], 8.55 µM (inactive). The GI50 in assay [8] is 34 µM (inactive); in assay [9], 15.7 µM (inactive); in [10] it was 39.9 µM (inactive); in [11], 26.9 µM (inactive); in [12] it was 19.9 µM (inactive); in assay [13], 26.7 µM (inactive). Further, the GI50 is 36.5 µM (inactive) in assay [14]; 16.6 µM (inactive) in assay [15]; 35 µM in [16]; 21.3 µM (inactive) in [17]; 31.7 µM (inactive) in [18].
As to `NC(=S)N/N=C1\CCCCc2ccccc21`, the GI50 in assay [1], in assay [20], in [2], in assay [3], in [4] and in [5] was > 10 µM (inactive) throughout. Further, the GI50 in assay [19], in [7], in [8], in assay [9], in assay [10] and in assay [11] was > 10 µM (inactive) each time. In addition, the GI50 in [12] was > 10 µM (inactive); in assay [13] it was > 10 µM (inactive); in assay [15] it was > 10 µM (inactive); in assay [16] it was above 10 µM; in [18], > 10 µM (inactive).
In the case of `Clc1cccc(Cl)c1C1SCc2nc3ncccc3n21` (stereo unspecified), the GI50 in assay [1] is > 100 µM (inactive); in assay [20] it was 62.8 µM (inactive); in [2], 52.2 µM (inactive); in assay [4], > 100 µM (inactive); in assay [5] it was > 100 µM (inactive); in [19], 61.8 µM (inactive). Also, the GI50 in assay [6] is 40.6 µM (inactive); in assay [7], > 100 µM (inactive); in assay [8], 8.07 µM (inactive); in assay [9], > 100 µM (inactive); in [10], 66.8 µM (inactive); in assay [11], > 100 µM (inactive). The GI50 in [12] is > 100 µM (inactive); in [13], > 100 µM (inactive); in [14], 19 µM (inactive); in assay [15] it was > 100 µM (inactive); in assay [16], above 100 µM; in [17], > 100 µM (inactive). Besides, in assay [18], the GI50 is > 100 µM (inactive).
With `COc1ccc(-n2c(N)c(C#N)c(C#N)c2-c2cccc([N+](=O)[O-])c2)cc1`, the GI50 is 42.5 µM (inactive) in assay [1]; 26.5 µM (inactive) in assay [2]; > 100 µM (inactive) in [3]; > 100 µM (inactive) in assay [4]; 2.46 µM (inactive) in assay [19]; 2.96 µM (inactive) in [6]. The GI50 is > 100 µM (inactive) in assay [7]; > 100 µM (inactive) in [8]; 88.9 µM (inactive) in assay [9]; > 100 µM (inactive) in assay [10]; 1.53 µM (inactive) in assay [11]; > 100 µM (inactive) in [12]. The GI50 was > 100 µM (inactive) in assay [13]; 67 µM (inactive) in assay [14]; > 100 µM (inactive) in assay [15]; above 100 µM in assay [16]; 17.5 µM (inactive) in assay [17]; 49.8 µM (inactive) in [18].
With `COc1cc(/C=N/NC(=O)c2ccc(NC(C)=O)cc2OC)ccc1O`, the GI50 was 55 µM (inactive) in assay [1]; > 100 µM (inactive) in assay [20]; > 100 µM (inactive) in assay [2]; > 100 µM (inactive) in assay [3]; 96.2 µM (inactive) in assay [4]; > 100 µM (inactive) in [19]. Besides, the GI50 in assay [6] is 26.7 µM (inactive); in [7] it was > 100 µM (inactive); in assay [8] it was > 100 µM (inactive); in [9], > 100 µM (inactive); in [10] it was < 0.01 µM (active); in [11], > 100 µM (inactive). Further, the GI50 is 54.6 µM (inactive) in [13]; 56.1 µM (inactive) in assay [15]; 76.6 µM in [16]; 61.9 µM (inactive) in assay [17]; 74.3 µM (inactive) in assay [18].
On to `COc1cc(/C=C/C(=O)OC[C@H](Br)[C@H](OC(C)=O)c2ccc3c(c2)OCO3)cc(OC)c1OC`, for which the GI50 is > 100 µM (inactive) in assay [1]; > 100 µM (inactive) in [2]; > 100 µM (inactive) in assay [3]; > 100 µM (inactive) in assay [4]; 7.69 µM (inactive) in assay [19]; 57.7 µM (inactive) in [7]. Further, the GI50 is > 100 µM (inactive) in [8]; > 100 µM (inactive) in [9]; > 100 µM (inactive) in [10]; 92.7 µM (inactive) in assay [11]; > 100 µM (inactive) in assay [12]; > 100 µM (inactive) in [13]. Also, the GI50 in assay [14] is > 100 µM (inactive); in assay [15] it was > 100 µM (inactive); in assay [16] it was above 100 µM; in assay [17], > 100 µM (inactive); in assay [18], > 100 µM (inactive).
Turning to `O=C(CCc1ccccc1)ON1C(=S)C(c2ccccc2)(c2ccccc2)N=C1Sc1ccccc1`, the GI50 in [1] was 31 µM (inactive); in [2], 58.1 µM (inactive); in assay [3] it was 54 µM (inactive); in assay [5], 12.4 µM (inactive); in [19], 4 µM (inactive); in assay [6], 37.9 µM (inactive). In addition, the GI50 in assay [7] is 33.7 µM (inactive); in assay [8], 74.1 µM (inactive); in [9], 38.7 µM (inactive); in [10] it was 45.3 µM (inactive); in [11], 38.1 µM (inactive); in assay [12] it was > 100 µM (inactive). In addition, the GI50 in assay [13] was 34.4 µM (inactive); in assay [14], > 100 µM (inactive); in assay [15] it was 35.5 µM (inactive); in assay [16], 24.9 µM; in assay [17], 55.1 µM (inactive); in [18], 52.7 µM (inactive).
